In PubChem BioAssay AID248 (DTP/NCI, 2004):
Values joined by “and” are separate entries in the source; they are usually repeats but may differ in a detail not shown here. Identical values can stand only once. Inconclusive results and toxic doses are left out. Cut-off read from the data, not from the text of the source: active = T/C of 150% or more; inactive = T/C below 125%.

System: L1210 leukemia ip in BDF1 mice, survival T/C
Test: NCI In Vivo Anticancer Drug Screen. Data for tumor model L1210 Leukemia (intraperitoneal) in B6D2F1 (BDF1) mice
Details: endpoint: mean survival time, higher = longer survival
Method in brief: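 Antitumor effect is assessed in tumor-bearing animals. Survival in the compound arm is compared with a vehicle-dosed control arm and expressed as their quotient.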

[1] = dose: 100.0 mg/kg/injection, schedule: Q01DX001 (ip), vehicle: saline
[2] = dose: 200.0 mg/kg/injection, schedule: Q01DX001 (ip), vehicle: saline
[3] = dose: 400.0 mg/kg/injection, schedule: Q01DX001 (ip), vehicle: saline
[4] = dose: 100.0 mg/kg/injection, schedule: Q04DX003 (ip), vehicle: Klucel (hydroxypropylcellulose) (HPC)
[5] = dose: 100.0 mg/kg/injection, schedule: Q01DX001 (ip), vehicle: carboxymethylcellulose (CMC)
[6] = dose: 200.0 mg/kg/injection, schedule: Q01DX001 (ip), vehicle: carboxymethylcellulose (CMC)
[7] = dose: 400.0 mg/kg/injection, schedule: Q01DX001 (ip), vehicle: carboxymethylcellulose (CMC)
[8] = dose: 100.0 mg/kg/injection, schedule: Q01DX009 (ip), vehicle: carboxymethylcellulose (CMC)
[9] = dose: 100.0 mg/kg/injection, schedule: Q04DX002 (ip), vehicle: carboxymethylcellulose (CMC)
[10] = dose: 200.0 mg/kg/injection, schedule: Q04DX002 (ip), vehicle: carboxymethylcellulose (CMC)
[11] = dose: 400.0 mg/kg/injection, schedule: Q01DX009 (ip), vehicle: carboxymethylcellulose (CMC)
[12] = dose: 400.0 mg/kg/injection, schedule: Q04DX002 (ip), vehicle: carboxymethylcellulose (CMC)
[13] = dose: 100.0 mg/kg/injection, schedule: Q01DX009 (ip), vehicle: saline with Tween-80
[14] = dose: 200.0 mg/kg/injection, schedule: Q01DX009 (ip), vehicle: saline with Tween-80
[15] = dose: 100.0 mg/kg/injection, schedule: Q04DX002 (ip), vehicle: saline with Tween-80
[16] = dose: 200.0 mg/kg/injection, schedule: Q04DX002 (ip), vehicle: saline with Tween-80
[17] = dose: 400.0 mg/kg/injection, schedule: Q04DX002 (ip), vehicle: saline with Tween-80
[18] = dose: 100.0 mg/kg/injection, schedule: Q04DX003 (ip), vehicle: saline
[19] = dose: 200.0 mg/kg/injection, schedule: Q04DX003 (ip), vehicle: saline
[20] = dose: 400.0 mg/kg/injection, schedule: Q04DX003 (ip), vehicle: saline
[21] = dose: 50.0 mg/kg/injection, schedule: Q01DX009 (ip), vehicle: Klucel (hydroxypropylcellulose) (HPC)

Measured: T/C

CCN(CC)CCCNc1nnc2c(=O)n(C)c(=O)n(C)c2n1
inactive: dose: 75.0 mg/kg/injection, schedule: Q04DX003 (ip), vehicle: saline 112 % of control | dose: 150.0 mg/kg/injection, schedule: Q04DX003 (ip), vehicle: saline 93 % of control | dose: 300.0 mg/kg/injection, schedule: Q04DX003 (ip), vehicle: saline 100 % of control

CCCCCCCNCCC#N
inactive: dose: 100.0 mg/kg/injection, schedule: Q01DX001 (ip), vehicle: saline with Tween-80 95 % of control | dose: 200.0 mg/kg/injection, schedule: Q01DX001 (ip), vehicle: saline with Tween-80 89 % of control

CC(=[N-])CC(C)=O.CC(=[N-])CC(C)=O.[Co+2]
inactive: dose: 12.5 mg/kg/injection, schedule: Q01DX001 (ip), vehicle: saline 86 % of control | dose: 25.0 mg/kg/injection, schedule: Q01DX001 (ip), vehicle: saline 98 % of control

S=c1nc[nH]c2c1ncn2C1OC(COCc2ccccc2)C(OCc2ccccc2)C1OCc1ccccc1 (configuration not stated)
inactive: dose: 50.0 mg/kg/injection, schedule: Q01DX001 (ip), vehicle: saline 93 % of control | [1] 102 % of control | [2] 93 % of control | [3] 96 % of control

O=C1c2ccccc2-c2ccc(-c3ccc4c5c(cccc35)C(=O)c3ccccc3-4)c3cccc1c23
inactive: [4] 89 % of control | dose: 200.0 mg/kg/injection, schedule: Q04DX003 (ip), vehicle: Klucel (hydroxypropylcellulose) (HPC) 95 % of control | dose: 400.0 mg/kg/injection, schedule: Q04DX003 (ip), vehicle: Klucel (hydroxypropylcellulose) (HPC) 89 % of control

Cc1[nH]c(=O)ncc1CCOCc1ccccc1
inactive: [5] 104 % of control | [6] 109 % of control | [7] 104 % of control

O=C(O)c1ccc(C(=O)c2ccc([N+](=O)[O-])cc2)cc1
inactive: dose: 25.0 mg/kg/injection, schedule: Q01DX009 (ip), vehicle: carboxymethylcellulose (CMC) 102 % of control and 104 % of control | dose: 50.0 mg/kg/injection, schedule: Q01DX009 (ip), vehicle: carboxymethylcellulose (CMC) 95 % of control and 108 % of control | [5] 92 % of control and 97 % of control | [8] 95 % of control and 102 % of control | [9] 101 % of control and 102 % of control | dose: 100.0 mg/kg/injection, schedule: Q04DX003 (ip), vehicle: carboxymethylcellulose (CMC) 105 % of control and 114 % of control | [6] 98 % of control and 100 % of control | [10] 93 % of control and 95 % of control | dose: 200.0 mg/kg/injection, schedule: Q04DX003 (ip), vehicle: carboxymethylcellulose (CMC) 97 % of control and 98 % of control | [7] 93 % of control and 100 % of control | [11] 104 % of control | [12] 95 % of control and 98 % of control | dose: 400.0 mg/kg/injection, schedule: Q04DX003 (ip), vehicle: carboxymethylcellulose (CMC) 96 % of control and 88 % of control

O=C1CCC(C(=O)NC(Cc2cncn2Cc2ccccc2)C(=O)NC(COCc2ccccc2)Cc2c[nH]c3ccccc23)N1 (configuration not stated)
inactive: [13] 96 % of control | [14] 104 % of control | dose: 400.0 mg/kg/injection, schedule: Q01DX009 (ip), vehicle: saline with Tween-80 94 % of control

Clc1ccc(/C=C/c2ccccc2)cc1
inactive: dose: 44.0 mg/kg/injection, schedule: Q01DX001 (ip), vehicle: other 96 % of control | dose: 66.0 mg/kg/injection, schedule: Q01DX001 (ip), vehicle: other 105 % of control | dose: 100.0 mg/kg/injection, schedule: Q01DX001 (ip), vehicle: other 100 % of control | dose: 150.0 mg/kg/injection, schedule: Q01DX001 (ip), vehicle: other 97 % of control | dose: 200.0 mg/kg/injection, schedule: Q01DX001 (ip), vehicle: other 100 % of control | dose: 400.0 mg/kg/injection, schedule: Q01DX001 (ip), vehicle: other 111 % of control

CCn1c(COc2ccc(Cl)cc2Cl)c(COC(=O)c2cccc(Cl)c2)c2ccccc21
inactive: [8] 98 % of control and 103 % of control | [9] 101 % of control and 102 % of control | dose: 200.0 mg/kg/injection, schedule: Q01DX009 (ip), vehicle: carboxymethylcellulose (CMC) 97 % of control and 98 % of control | [10] 94 % of control and 98 % of control | [11] 87 % of control | [12] 95 % of control and 91 % of control

Nc1c(F)c(F)c(C(=O)O)c(F)c1F
inactive: dose: 100.0 mg/kg/injection, schedule: Q04DX002 (ip), vehicle: saline 94 % of control and 101 % of control | dose: 200.0 mg/kg/injection, schedule: Q04DX002 (ip), vehicle: saline 97 % of control and 107 % of control | dose: 800.0 mg/kg/injection, schedule: Q04DX002 (ip), vehicle: saline 100 % of control

O=C(O)C(Cl)C(C(=O)O)c1ccccc1 (configuration not stated)
inactive: [15] 101 % of control | [16] 93 % of control | [17] 93 % of control

O=C(COc1ccc2ccccc2c1)Nc1ccc[n+](Cc2ccc(S(=O)(=O)F)cc2)c1
inactive: [18] 106 % of control | [19] 90 % of control | [20] 94 % of control

Oc1ccc(Br)cc1C=Nc1ccccc1
inactive: [15] 96 % of control | [16] 104 % of control | [17] 100 % of control

CC(C)C(O)C1(C)CC1 (configuration not stated)
inactive: [13] 96 % of control | [18] 106 % of control | [14] 95 % of control | [19] 107 % of control | [20] 111 % of control

CC(=O)Nc1ccc(/C=N/NC(N)=S)cc1
inactive: dose: 100.0 mg/kg/injection, schedule: Q04DX013 (ip), vehicle: carboxymethylcellulose (CMC) 94 % of control | dose: 200.0 mg/kg/injection, schedule: Q04DX013 (ip), vehicle: carboxymethylcellulose (CMC) 98 % of control

N#CCCn1cnc2c(=S)nc[nH]c21
inactive: dose: 2.0 mg/kg/injection, schedule: Q01DX Z (ip), vehicle: other 97 % of control | dose: 4.0 mg/kg/injection, schedule: Q01DX Z (ip), vehicle: other 97 % of control and 100 % of control | dose: 8.0 mg/kg/injection, schedule: Q01DX Z (ip), vehicle: other 100 % of control and 106 % of control | dose: 16.0 mg/kg/injection, schedule: Q01DX Z (ip), vehicle: other 101 % of control and 102 % of control | dose: 32.0 mg/kg/injection, schedule: Q01DX Z (ip), vehicle: other 96 % of control and 98 % of control

NC1CCC(CC2CCCCC2)CC1 (configuration not stated)
inactive: dose: 25.0 mg/kg/injection, schedule: Q01DX009 (ip), vehicle: Klucel (hydroxypropylcellulose) (HPC) 96 % of control | dose: 25.0 mg/kg/injection, schedule: Q04DX003 (ip), vehicle: Klucel (hydroxypropylcellulose) (HPC) 95 % of control | [21] 98 % of control | dose: 50.0 mg/kg/injection, schedule: Q04DX003 (ip), vehicle: Klucel (hydroxypropylcellulose) (HPC) 100 % of control | [4] 91 % of control

COC(=O)c1ccccc1Nc1ccccc1[N+](=O)[O-]
inactive: dose: 75.0 mg/kg/injection, schedule: Q04DX003 (ip), vehicle: Klucel (hydroxypropylcellulose) (HPC) 101 % of control | dose: 100.0 mg/kg/injection, schedule: Q01DX001 (ip), vehicle: Klucel (hydroxypropylcellulose) (HPC) 100 % of control | dose: 150.0 mg/kg/injection, schedule: Q04DX003 (ip), vehicle: Klucel (hydroxypropylcellulose) (HPC) 87 % of control | dose: 200.0 mg/kg/injection, schedule: Q01DX001 (ip), vehicle: Klucel (hydroxypropylcellulose) (HPC) 95 % of control | dose: 300.0 mg/kg/injection, schedule: Q04DX003 (ip), vehicle: Klucel (hydroxypropylcellulose) (HPC) 90 % of control | dose: 400.0 mg/kg/injection, schedule: Q01DX001 (ip), vehicle: Klucel (hydroxypropylcellulose) (HPC) 113 % of control

N#CNS(=O)(=O)c1ccccc1
inactive: [1] 98 % of control | [2] 92 % of control | [3] 98 % of control

O=C(/C=C/c1ccccc1)Nc1cc([N+](=O)[O-])ccc1O
inactive: [21] 97 % of control | dose: 100.0 mg/kg/injection, schedule: Q01DX009 (ip), vehicle: Klucel (hydroxypropylcellulose) (HPC) 94 % of control and 87 % of control | dose: 200.0 mg/kg/injection, schedule: Q01DX009 (ip), vehicle: Klucel (hydroxypropylcellulose) (HPC) 94 % of control and 97 % of control | dose: 400.0 mg/kg/injection, schedule: Q01DX009 (ip), vehicle: Klucel (hydroxypropylcellulose) (HPC) 87 % of control
